For orientation: viability means a read-out of living cells in per cent, often relative to untreated cells. What is called EC50 is the concentration at which the effect is half-maximal. As a reminder, the fold induction is the ratio of treated to control signal. Read a high fold induction as a large rise in signal.

Consider 5 compounds from US20180116993A1, “MODULATORS OF FARNESOID X RECEPTOR AND METHODS FOR THE USE THEREOF” (XIAMEN UNIVERSITY, priority 2015, published 2018).

Test [1] concerns human breast cancer MCF7 cells. Put plainly: MTT cell viability assay, MCF-7. To be noted: 48 h, read-out: Cell viability as a percentage of the cells treated with DMSO, MCF-7. The class given is cell-based. The gist of the method:
(§1)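 Compound tested at two concentrations, 20 uM and 40 uM, on cells kept in 10% FBS/DMEM. MTT assay; percent of DMSO.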
(In general: Tetrazolium dyes change colour on reduction, which living cells bring about.)

The target of test [2] is T1, FXR ligand binding domain (LBD) (Homo sapiens, UniProt Q96RI1).
T1 construct: made in house
T1 sequence (Q96RI1 262-486 limits assumed): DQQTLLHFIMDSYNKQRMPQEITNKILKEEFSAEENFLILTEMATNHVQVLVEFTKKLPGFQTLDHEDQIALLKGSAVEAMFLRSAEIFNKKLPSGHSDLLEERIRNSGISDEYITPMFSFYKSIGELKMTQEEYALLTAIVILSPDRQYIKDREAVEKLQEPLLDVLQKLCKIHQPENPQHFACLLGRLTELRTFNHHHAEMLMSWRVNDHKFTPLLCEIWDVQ
The experiment in a line: AlphaScreen assay: FXR LBD recruitment of coregulator peptide motifs (SRC2-3, SRC1-2). The class given is biochemical. In general terms: Bead proximity is the source of the signal in Alpha formats.

In test [3] the test system is human cervical carcinoma Hela cells. The experiment in a line: MTT cell viability assay, Hela. The class given is cell-based. To be noted: 48 h, read-out: Cell viability as a percentage of the cells treated with DMSO, Hela. The gist of the method: as §1
Test [4] relates to RA-resistant human colon cancer HCT116 cells. The experiment in a line: MTT cell viability assay, HCT116. The class given is cell-based. To be noted: 48 h, read-out: Cell viability as a percentage of the cells treated with DMSO, HCT116; for viability at 20 µM: HCT-116, 20 uM; for viability at 40 µM: HCT-116, 40 uM. The gist of the method: as §1
A further test concerns the target T2, full-length FXR (Homo sapiens, UniProt Q96RI1).
T2 construct: The cells were co-transfected with plasmids encoding full-length FXR and the cognate luciferase reporter EcRE-Luc; expressed in transfected cells; host or cells: COS-7
T2 sequence (Q96RI1 1-486): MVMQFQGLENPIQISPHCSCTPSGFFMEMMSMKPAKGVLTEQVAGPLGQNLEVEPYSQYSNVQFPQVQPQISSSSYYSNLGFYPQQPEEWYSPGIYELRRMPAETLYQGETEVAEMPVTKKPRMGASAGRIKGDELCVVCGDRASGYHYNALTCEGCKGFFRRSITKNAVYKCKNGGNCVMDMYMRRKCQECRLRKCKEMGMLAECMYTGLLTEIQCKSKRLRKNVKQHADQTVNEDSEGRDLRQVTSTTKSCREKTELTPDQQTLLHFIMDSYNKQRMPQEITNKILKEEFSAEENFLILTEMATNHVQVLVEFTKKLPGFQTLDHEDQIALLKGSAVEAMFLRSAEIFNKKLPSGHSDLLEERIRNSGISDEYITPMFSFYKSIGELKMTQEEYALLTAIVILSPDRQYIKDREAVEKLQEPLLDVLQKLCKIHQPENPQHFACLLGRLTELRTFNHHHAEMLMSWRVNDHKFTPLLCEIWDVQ
The experiment in a line: Cell-based FXR transactivation, EcRE luciferase reporter in COS-7 cells. To be noted: for Cell-based FXR transactivation Fold changes by 5 μM compound: positive: induction, minus: repression. The gist of the method:
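COS-7 cells were transiently cotransfected with full-length FXR, EcRE-Luc reporter and a renilla control. Ligands were added 5 h after transfection, and cells were harvested 24 h later. Firefly luciferase was normalized to renilla in a dual-luciferase read-out.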
(In a reporter assay the amount or activity of a reporter protein is the signal.)

The test system of test [5] is human colorectal adenocarcinoma HCT15 cells. The experiment in a line: MTT cell viability assay, HCT15. It is filed as cell-based. The conditions noted are these: 48 h, read-out: Cell viability as a percentage of the cells treated with DMSO, HCT15; for viability at 20 µM: HCT-15, 20 uM; for viability at 40 µM: HCT-15, 40 uM. The gist of the method:
as §1

For test [6], the system named is human hepatoma HepG2 cells. Put plainly: MTT cell viability assay, HepG2. The class given is cell-based. To be noted: 48 h, read-out: Cell viability as a percentage of the cells treated with DMSO, HepG2. The gist of the method:
as §1

The mark [7] stands for this setting: SRC1-2 peptide, Table 2, read-out: EC50 (μM) of FXR binding by AlphaScreen assay recruit SRC1-2.
Setting [8] is: SRC2-3 peptide, Table 2, read-out: EC50 (μM) of FXR binding by AlphaScreen assay recruit SRC2-3.
Setting [9] is: EcRE luciferase reporter, Table 2.

SMILES strings stand for the structures. Read-outs that look alike come from different tables or passages of the source.

For `Nc1ccc(C(=O)OC2CCC3CCCCC3C2)cc1` (stereo not shown) [XD-23, decahydro-naphthalen-2-yl 4-aminobenzoate], the viability at 20 µM in test [1] was determined as 100 ± 2%; in test [3], 100 ± 2%; in test [4], 75 ± 2%; in test [5], 81 ± 2%; in test [6] it was 100 ± 2%. Besides, the viability at 40 µM turned out to be 98 ± 2% in test [1]; 95 ± 3% in test [3]; 72 ± 2% in test [4]; 48 ± 2% in test [5]; 100 ± 2% in test [6]. For the same compound, the figures for the EC50 (in test [2] (setting [7]); in test [2] (setting [8]); on full-length FXR (setting [9])) were less than 0.5 µM, less than 0.5 µM and less than 1000 nM, respectively. For the same compound, at full-length FXR (5 μM compound, Table 2), the “Cell-based FXR transactivation Fold changes by 5 μM compound” value is given as −30.
With `COc1cc(C(=O)OC2CCC3CCCCC3C2)ccc1O` (stereo not shown) [XD-30, decahydro-naphthalen-2-yl 4-hydroxy-3-methoxybenzoate], the viability at 20 µM in test [1] was found to be 100 ± 2%; in test [3], 81%; in test [4] it was 100 ± 2%; in test [5], 96 ± 2%; in test [6], 100 ± 2%. Besides, the viability at 40 µM in test [1] is 92 ± 2%; in test [3], 79 ± 2%; in test [4] it was 100 ± 2%; in test [5], 77 ± 2%; in test [6] it was 94 ± 2%. The EC50 in test [2] (setting [7]) was less than 0.5 µM; in test [2] (setting [8]), less than 0.5 µM; at full-length FXR (setting [9]) it was less than 1000 nM. The “Cell-based FXR transactivation Fold changes by 5 μM compound” value on full-length FXR (5 μM compound, Table 2) amounted to 3.
`Cc1cc(C(=O)OC2CCCCCCC2)ccc1O` [XD-17, cyclooctyl 4-hydroxy-3-methylbenzoate]: the viability at 20 µM is 91 ± 9% in test [1]; 83 ± 4% in test [3]; 82 ± 2% in test [4]; 52 ± 2% in test [5]; 87% in test [6]. Also, the viability at 40 µM in test [1] was determined as 25%; in test [3], 39 ± 1%; in test [4], 27 ± 3%; in test [5] it was 24 ± 3%; in test [6], 40 ± 1%. In addition, the values for the EC50 (in test [2] (setting [7]); in test [2] (setting [8]); on full-length FXR (setting [9])) were less than 1 µM, less than 1 µM and less than 1000 nM, respectively. Also, the “Cell-based FXR transactivation Fold changes by 5 μM compound” value at full-length FXR (5 μM compound, Table 2) is listed as 3.
`C/C1=C\CCC(C)(O)/C=C/C(C(C)C)C(OC(=O)c2ccc(O)cc2)C1` (stereo not shown) [Feroline]: the viability at 20 µM in test [1] worked out at 92 ± 13%; in test [3], 83%; in test [4], 100 ± 5%; in test [5] it was 100 ± 2%; in test [6] it was 84%. In addition, the viability at 40 µM in test [1] came to 86 ± 12%; in test [3], 67 ± 3%; in test [4], 80 ± 2%; in test [5] it was 76 ± 6%; in test [6], 65 ± 3%. Also, the EC50 is less than 1 µM in test [2] (SRC1-2 peptide, Table 1, read-out: EC50 (μM) of FXR binding by AlphaScreen assay recruit SRC1-2); less than 1 µM in test [2] (SRC2-3 peptide, Table 1, read-out: EC50 (μM) of FXR binding by AlphaScreen assay recruit SRC2-3); less than 1000 nM at full-length FXR (EcRE luciferase reporter, Table 1). The fold induction at 5 µM on full-length FXR (5 μM compound, EcRE luciferase reporter, Table 1) was more than 10.
With `CC1(C)C2CCC1(C)C(OC(=O)c1ccc(N)cc1)C2` (stereo not shown) [XD-5, 1,7,7-trimethyl-bicyclo[2.2.1]-heptan-2-yl 4-aminobenzoate], the viability at 20 µM in test [1] was 100 ± 3%; in test [3], 93 ± 4%; in test [4], 88 ± 2%; in test [5] it was 80 ± 4%; in test [6] it was 95 ± 1%. Further, the viability at 40 µM in test [1] came out at 20%; in test [3] it was 46 ± 3%; in test [4], 30 ± 3%; in test [5], 30 ± 4%; in test [6], 40 ± 1%. For the same compound, the EC50 in test [2] (setting [7]) was less than 1 µM; in test [2] (setting [8]) it was less than 1 µM; on full-length FXR (setting [9]), less than 1000 nM. The “Cell-based FXR transactivation Fold changes by 5 μM compound” value on full-length FXR (5 μM compound, Table 2) was more than 10.
